According to patent US20130023491A1, “BETA-CELL REPLICATION PROMOTING COMPOUNDS AND METHODS OF THEIR USE” (President and Fellows of Harvard College, priority 2009, published 2013):
Entries after “also recorded” stand apart in the source; their conditions may differ. Like-named read-outs stand apart in the source and are kept apart here.

Tests used:
[1] = test system: β-cells (dispersed rat islet cells); assay: primary islet β-cell replication assay (PDX-1/ki-67 co-staining, automated imaging); type: cell-based; details: for increase of β-cell replication: 24 h, 5-IT 2 μM, GLP-1 and Ex-4 20 nM and 4 nM, normalized to DMSO; for EC50: Rattus norvegicus
Method: Rat islets were isolated as previously described in Gotoh M, Maki T, Kiyoizumi T, Satomi S, Monaco A P: An improved method for isolation of mouse pancreatic islets. Transplantation 40:437-438, 1985, contents of which are herein incorporated by reference in their entirety. Isolated islets were cultured overnight in a tissue culture incubator. The following morning, islets were trypsinized into cellular clusters of 1-3 cells, re-suspended in islet media (Mediatech 99-786-CV; 10% FBS serum (Valley Biomedial BS3033); 8.3 mM Glucose (Sigma G7528); 1× Penicillin/Streptomycin (Invitrogen 15070-063); 1× Glutamax (Invitrogen 35050-079)) and plated into the wells of a 96-well plate (Sigma CLS3904) that had been coated with 804G (a rat bladder carcinoma cell line) conditioned media. The cellular plating density was 60 k cells/well and greater than 95% viability was confirmed at the time of plating. […] For screening, compounds were tested at 1 uM concentration in duplicate. After 24-hours of compound treatment, cells were fixed with fresh 4% PFA (Electron Microscopy Services 15710) for 20 minutes and washed with PBS (VWR 45000-446). Antigen retrieval was performed by heating the cells to 90 degrees Celsius in 0.1 mM EDTA (Ambion AM9260G) in PBS. Cells were then washed and permeabalized with PBS/0.3% Triton X-100 (J.T.Baker X198-07) for 15 minutes. Immunocytochemical staining was then performed as follows. Antigen blocking was performed with 5% normal donkey serum (Jackson ImmunoResearch 017-000-121) in PBS for an hour. Staining was performed by overnight incubation with primary antibody at 4 degrees Celsius. For the primary screen, PDX-1 antibody (R&D AF2419) was used to reveal beta-cells and ki-67 antibody (BD Bioscience 556003) to visualize proliferating cells. Without wishing to be bound by theory, the failure of prior beta-cell replication screens is primarily a consequence of using a cytoplasmic marker (Insulin) as the β-cell identifier. The use of a cytoplasmic marker prevents accurate attribution of nuclear replication to a specific cell identity i.e., in dense culture it is impossible to attribute a cytoplasm to a specific nucleus given the proximity to multiple nuclei. Additional Immunohistochemistry antibodies included Phosphohistone 3 (Millipore 06-570), Insulin (Dako A0564), Glucagon (Millipore 4031-01F) and Vimentin (Millipore ab5733). For western blotting anti-bodies included ADK (Abcam ab38010, ab64825) and RAN (BD Bioscience 610340) as a loading control.
Once compound-treated islet cells were stained, β-cell replication was assessed via automated image acquisition and analysis using a Cellomics ArrayScanVTI. The acquisition thresholds/parameters were established such that the computer-based calls of replication events were consistent with human-based calls. The parameters used were directed at the identification of (1) PDX-1+ cells and (2) ki-67 positive staining within the PDX-1 positive area. The algorithm was a three step process. First the nuclear area was predicted by the software based upon the expected PDX-1 staining pattern. Second PDX-1 positive cells (selected objects) were counted based upon the average staining intensity within the predicted nuclear area (Note: total signal intensity was essentially equal in quality but was not typically used). Third, the number of PDX-1 positive cells (selected objects) that simultaneously were Ki-67 positive was determined by determining the average fluorescence intensity of ki-67 staining within the predicted nuclear area (again, total intensity was also occasionally used with equal efficacy). The specific thresholds (fluorescence intensities) varied from experiment to experiment. In general, the basal replication rate was set at roughly 1% i.e., the algorithm was varied until 1% of DMSO treated PDX+ cells were reported to be double positive for PDX-1 and ki67. […]

islet β-cells = assay: in vivo β-cell replication (BRDU incorporation); design: species or system mouse; details: mice
Text: 24-hours post treatment, animals were sacrificed and the pancreas was fixed, sectioned and stained for PDX-1 and BRDU (Amaersham RPN202). Every fourth section was included in analysis and a minimum of 2000 PDX-1^+ per animal were counted.
(§1) A minority of these cells were not exocrine cells. […] Dividing cells were BRDU^+ (Amaersham RPN202).

porcine β-cells = assay: porcine islet β-cell replication (PDX-1/ki-67); type: cell-based; details: FIG. 13b bottom
Method: (§2) Rat and mouse islets were isolated as previously described. (M. Gotoh, et al., Transplantation 43, 725-730 (1987)) All animal work was approved and carried out in accordance with our institutional animal care and use committee. Porcine islets were provided by VitaCyte (Indianapolis, Id.). Islets were incubated (37° C., 5% CO2) overnight in islet media (Mediatech 99-786-CV; 10% FBS serum (Valley Biomedial BS3033); 8.3 mM Glucose (Sigma G7528); 1× Penicillin/Streptomycin (Invitrogen 15070-063); 1× Glutamax (Invitrogen 35050-079)). The following morning, islets were trypsinized into cellular clusters of 1-3 cells, re-suspended in islet media and plated into the wells of a 96-well plate (Sigma CLS3904) that had been coated with 804G (a rat bladder carcinoma cell line) conditioned media. The cellular plating density was 60 k cells/well and greater than 95% viability was confirmed at the time of plating. The islet cells were allowed 48-hours to adhere at which time the media was changed (as above, except 2% serum, 5 mM glucose) and the cells were compound treated. For screening, compounds were tested at 1 μM and 10 μM concentrations in duplicate on a single occasion. After 24-hours of compound treatment, cells were fixed with fresh 4% PFA. Antigen retrieval was performed by heating the cells to 90 degrees Celsius in 0.1 M EDTA in distilled water. […]

exocrine cells = assay: in vivo exocrine cell replication (BRDU incorporation); design: species or system mouse; details: mice, 21 mg/kg, 24 h
Text: as §1

murine β-cells = assay: murine islet β-cell replication (PDX-1/ki-67); type: cell-based, mouse; details: FIG. 13b top
Method: as §2

[2] = compared to 5-IT; Zheng et al. 2001; cited from earlier work

Molecule: NC(=O)c1ncn([C@@H]2O[C@H](CO)[C@@H](O)[C@H]2O)c1N [AICAR, 5-aminoimidazole-4-carboxamide ribonucleoside]
- % β-cell replication ([1]; AICAR 3.3 μM): increase

Molecule: Nc1ncnc2c1ncn2[C@@H]1O[C@H](CO)[C@@H](O)[C@H]1O [adenosine]
- effect on % PDX-1 and Ki-67 expressing cells (β-cell proliferation) ([1]; rat islets, adenosine 0.05-1000 uM): little effect; also recorded: no effect

Molecule: Exendin-4 [Ex-4]
- increase of β-cell replication [1]: ~1.5 fold

Molecule: c1cc(-c2cnn3cc(-c4ccc(OCCN5CCCCC5)cc4)cnc23)ccn1 [Cpd C]
- beta-cell replication with A10 relative to the uninhibited controls ([1]; Cpd C 10 μM): decrease

Molecule: Nc1ncnc2c1c(I)cn2[C@H]1CC[C@@H](CO)O1 [7-Iodo-2,3-dideoxy-7-deazadenosine, 7-deaza-7-iodo-2′,3′-dideoxyadenosine]
- β-cell replication after treatment with additional ADK-Is ([1]; FIG. 17b, 7-Iodo-2,3-dideoxy-7-deazadenosine 20 μM, 10 μM, Aristeromycin 6 μM, 1 μM): increased

Molecule: Glucagon-like peptide-1 [GLP-1]
- increase of β-cell replication [1]: ~1.5 fold

Molecule: Nc1ncnc2nc(-c3ccc(N4CCOCC4)nc3)cc(-c3cccc(Br)c3)c12 [ABT-702, 5-(3-bromophenyl)-7-(6-morpholinopyridin-3-yl)pyrido[2,3-d]pyrimidin-4-amine]
- in vivo β-cell replication rate, β-cells identified by insulin immunostaining (islet β-cells; separate cohort, FIG. 20): increases
- increase in BRDU incorporation by β-cells in vivo (PDX-1 identified) (islet β-cells; single intraperitoneal injection, 21 mg/kg, 24 h): 2 fold
- induction of β-cell replication, porcine islet cells (porcine β-cells): induction of β-cell replication similar to that observed for rat islet cells
- in vivo replication rate of exocrine cells (exocrine cells): did not increase
- induction of β-cell replication, murine islet cells (murine β-cells): induction of β-cell replication similar to that observed for rat islet cells
- half-life [2]: longer half-life compared to 5-IT
- % of Ki-67 positive β-cells (PDX-1 and Ki-67 positive cells), dose curve ([1]; A10 0.019-10 uM, B8 0.23-30 uM): increased in a dose dependent manner
- EC50 ([1]; FIG. 13c dose-response curves, read-out: EC50, β-cell proliferation in rat islet cultures): 7 µM
- EC50 ([1]; dose curves FIG. 2a (A10) and FIG. 3 (B8), Ki-67 positive β-cells, read-out: EC50 for β-cell proliferation): 9.1 µM
